Legend:
Assay in all cases: relative viability (nuclei count vs DMSO), 5 days (fraction); higher = more cells survive
Shikonin + Lapatinib = compound: CC(C)=CC[C@@H](O)C1=CC(=O)c2c(O)ccc(O)c2C1=O [Shikonin] + CS(=O)(=O)CCNCc1ccc(-c2ccc3ncnc(Nc4ccc(OCc5cccc(F)c5)c(Cl)c4)c3c2)o1 [Lapatinib] (partner 2 µM)
Method in brief: (§1)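 One day after seeding in 1536-well plates, lung cancer cell lines were dosed by pin tool. Dosing was either single-drug or a fixed anchor-drug dose plus five library-drug doses (not always all listed) in √10 steps. After 5 days, nuclei were stained in one fix-and-stain step and counted on 4× images, and relative viability is the nuclei count of treated wells over that of vehicle wells, given as the median of duplicate plates.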

Shikonin + Olaparib = compound: CC(C)=CC[C@@H](O)C1=CC(=O)c2c(O)ccc(O)c2C1=O [Shikonin] + O=C(c1cc(Cc2n[nH]c(=O)c3ccccc23)ccc1F)N1CCN(C(=O)C2CC2)CC1 [Olaparib] (partner 8 µM)
Method in brief: as §1

[1] = compound: CC(C)N(CCCNC(=O)Nc1ccc(C(C)(C)C)cc1)C[C@H]1O[C@@H](n2ccc3c(N)ncnc32)[C@H](O)[C@@H]1O + Cc1cc(Nc2cc(N3CCN(C)CC3)nc(Sc3ccc(NC(=O)C4CC4)cc3)n2)n[nH]1 [Tozasertib] (partner 0.1 µM)
Method in brief: as §1

[2] = compound: CC(C)N(CCCNC(=O)Nc1ccc(C(C)(C)C)cc1)C[C@H]1O[C@@H](n2ccc3c(N)ncnc32)[C@H](O)[C@@H]1O + Nc1ncn([C@H]2C[C@H](O)[C@@H](CO)O2)c(=O)n1 [Decitabine] (partner 2 µM)
Method in brief: as §1

Cell Line	relative viability (Shikonin + Lapatinib; first compound 0.01 µM)	relative viability (Shikonin + Lapatinib; first compound 0.1 µM)	relative viability (Shikonin + Lapatinib; first compound 0.3162 µM)	relative viability (Shikonin + Lapatinib; first compound 1 µM)	relative viability (Shikonin + Olaparib; first compound 0.01 µM)	relative viability (Shikonin + Olaparib; first compound 0.1 µM)	relative viability (Shikonin + Olaparib; first compound 0.3162 µM)	relative viability (Shikonin + Olaparib; first compound 1 µM)	relative viability ([1]; first compound 0.08 µM)	relative viability ([1]; first compound 0.253 µM)	relative viability ([1]; first compound 0.8 µM)	relative viability ([1]; first compound 2.53 µM)	relative viability ([1]; first compound 8 µM)	relative viability ([2]; first compound 0.08 µM)	relative viability ([2]; first compound 0.253 µM)	relative viability ([2]; first compound 0.8 µM)	relative viability ([2]; first compound 2.53 µM)	relative viability ([2]; first compound 8 µM)
NCI-H358	0.374	0.53	0.412	0.391	0.622	0.619	0.539	0.219	0.112	0.117	0.119	0.0915	0.112	0.233	0.187	0.212	0.214	0.189
NCI-H460	1.32	1.51	0.951	1.12	0.584	0.615	0.515	0.39	0.402	0.435	0.346	0.488	0.453	0.484	0.488	0.455	0.435	0.414
NCI-H520	–	0.813	0.884	0.923	0.323	0.368	0.283	0.295	0.453	0.512	–	0.416	0.437	0.531	0.469	0.405	0.471	0.492
NCI-H596	1.19	1.02	1.15	0.98	0.547	0.728	0.709	0.605	0.905	–	0.744	0.97	0.897	1.03	0.975	1.03	1.19	0.988
NCI-H647	1.16	1.17	1.35	0.88	0.723	0.597	0.488	0.47	0.261	0.318	–	0.416	0.267	0.419	0.374	0.363	0.336	0.392
NCI-H650	1.01	–	0.947	1.16	0.373	0.406	0.399	0.345	0.689	0.768	0.691	0.731	0.696	0.338	0.372	0.335	0.315	0.324
NCI-H661	0.575	0.494	0.501	0.594	0.847	0.879	0.73	0.646	0.365	0.345	0.362	0.35	0.37	0.521	0.469	0.542	0.577	0.623
NCI-H727	0.923	0.96	0.745	0.604	0.685	0.737	0.648	0.583	0.667	0.656	0.697	0.621	0.642	0.907	0.687	0.885	0.905	0.973
NCI-H838	1.02	1.03	0.979	0.996	0.798	0.845	0.865	0.667	0.258	0.264	0.341	0.275	0.233	0.454	0.431	0.491	0.483	0.511
NCI-H1355	1.07	1.05	1.07	1.05	0.811	0.812	0.786	0.776	0.581	0.536	0.574	0.501	0.55	0.338	0.342	0.414	0.335	0.342
NCI-H1395	0.924	1.26	0.923	0.895	0.407	0.455	0.416	0.427	0.727	0.731	0.63	0.774	0.741	0.711	0.704	0.76	0.748	0.662
NCI-H1437	0.846	0.78	0.884	0.848	0.661	0.678	0.601	0.521	0.405	0.38	0.409	0.372	0.389	0.563	0.569	0.619	0.553	0.592
NCI-H1650	0.758	0.819	0.684	0.757	0.877	0.787	0.732	0.718	0.483	0.358	–	0.398	0.439	0.368	0.482	0.262	0.432	0.357
NCI-H1651	0.714	0.925	0.919	0.844	0.173	0.188	0.161	0.178	0.624	0.752	0.628	0.725	0.579	0.611	0.534	0.589	0.611	0.539
NCI-H1666	0.585	0.779	0.657	0.853	0.748	0.732	0.773	0.699	0.512	0.563	0.632	0.563	0.695	0.722	0.697	0.808	0.832	0.673
NCI-H1734	1.17	1.25	1.02	1.09	0.697	0.655	0.695	0.632	0.265	0.249	0.277	0.246	0.258	0.454	0.495	0.463	0.545	0.484
NCI-H1755	1.13	1.27	1.12	1.09	0.794	0.909	0.837	0.792	0.637	0.564	0.464	0.573	0.54	0.787	0.701	0.666	0.668	0.714
NCI-H1793	0.637	0.786	0.742	0.648	1.12	0.995	1	0.914	0.345	–	0.356	0.33	0.386	0.481	–	0.77	0.537	0.359

— the supplement of paper PMC10307832
